These results are taken from US11591288B2, “Compositions and methods for treating atherosclerotic cardiovascular disease” (GAVISH-GALILEE BIO APPLICATIONS LTD., priority 2017, dated 2023).

Experiment [1] relates to Human umbilical vein endothelial cells (HUVECs). The experiment in a line: HDL-induced endothelial NO release, DAN assay. The class given is cell-based. The settings on record: HDL 50 μg/ml preincubated 3 h with 10, 20, 50 μg/ml; HUVECs 2 h. The method, then:
HUVECs were stimulated for 2 h with HDL (50 μg/ml) preincubated with DMSO, lyso-DGTS and S1P at final concentrations of 10, 20, and 50 μg/ml for 3 h. Media were then collected and treated with nitrate reductase followed by analysis using the DAN assay. Data are expressed as NO concentration (μM) released by the cells. Each experiment was repeated separately at least three times. *p<0.05, ***p<0.0001 related to the control (HDL without lyso-DGTS or S1P). Statistics were analyzed using one-way annova Graphpad prism 5 software.
Human umbilical vein endothelial cells (HUVECs) were incubated for 2 hours with HDL preincubated with different concentration of lyso-DGTS or S1P for 3 hours, and NO production determined using 2,3-diaminonapthalene (DAN) assay.

A further experiment deals with rePON1. To be noted: 25° C.; Cohen et al., 2014; cited from earlier work.
A further experiment deals with J774A.1 macrophages. To be noted: as previously shown; cited from earlier work.
For another experiment, the target named is PON1 (Homo sapiens, UniProt P27169). The settings on record: Cohen et al., 2014; cited from earlier work.
PON1, sequence (P27169 whole entry, species assumed): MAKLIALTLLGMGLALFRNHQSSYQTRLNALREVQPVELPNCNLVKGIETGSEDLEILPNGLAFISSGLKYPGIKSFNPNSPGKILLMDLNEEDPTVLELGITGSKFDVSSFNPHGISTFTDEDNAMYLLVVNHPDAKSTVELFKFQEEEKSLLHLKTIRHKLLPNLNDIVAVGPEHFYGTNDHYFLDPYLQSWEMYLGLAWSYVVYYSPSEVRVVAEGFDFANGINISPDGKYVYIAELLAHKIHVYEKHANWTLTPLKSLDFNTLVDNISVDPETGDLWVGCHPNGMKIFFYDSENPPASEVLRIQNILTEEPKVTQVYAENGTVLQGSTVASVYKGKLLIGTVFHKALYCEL

Consider `CCCCCCCCCCCCC/C=C/[C@@H](O)[C@@H](N)COP(=O)(O)O` [S1P, Sphingosine 1-Phosphate, reference compound], for which the “effect on HDL ability to induce endothelial NO release” value in experiment [1] was “significantly increased the HDL ability to induce endothelial NO release at a dose dependent manner”.
For PC 16:0 18:2, in the experiment on rePON1, the “Binding constant Ka to PON1” value is 1680 M⁻¹. In addition, the “effect on PON1 uptake by macrophage cells” value with J774A.1 macrophages was “enhance PON1 uptake by macrophage cells”. At PON1, the “decrease of the ratio between HDL-PON1 and free-PON1” value is 50%.
